Experimental data from PMC8553340, “USP28 deletion and small-molecule inhibition destabilizes c-MYC and elicits regression of squamous cell lung carcinoma” (eLife, 2021).

Biological target: T1, ubiquitin-specific protease 28 (USP28) (Homo sapiens, UniProt Q96RU2)
T1 construct: endogenous, NCI-H520 cell extracts and intact cells
T1 sequence (Q96RU2 1-1077): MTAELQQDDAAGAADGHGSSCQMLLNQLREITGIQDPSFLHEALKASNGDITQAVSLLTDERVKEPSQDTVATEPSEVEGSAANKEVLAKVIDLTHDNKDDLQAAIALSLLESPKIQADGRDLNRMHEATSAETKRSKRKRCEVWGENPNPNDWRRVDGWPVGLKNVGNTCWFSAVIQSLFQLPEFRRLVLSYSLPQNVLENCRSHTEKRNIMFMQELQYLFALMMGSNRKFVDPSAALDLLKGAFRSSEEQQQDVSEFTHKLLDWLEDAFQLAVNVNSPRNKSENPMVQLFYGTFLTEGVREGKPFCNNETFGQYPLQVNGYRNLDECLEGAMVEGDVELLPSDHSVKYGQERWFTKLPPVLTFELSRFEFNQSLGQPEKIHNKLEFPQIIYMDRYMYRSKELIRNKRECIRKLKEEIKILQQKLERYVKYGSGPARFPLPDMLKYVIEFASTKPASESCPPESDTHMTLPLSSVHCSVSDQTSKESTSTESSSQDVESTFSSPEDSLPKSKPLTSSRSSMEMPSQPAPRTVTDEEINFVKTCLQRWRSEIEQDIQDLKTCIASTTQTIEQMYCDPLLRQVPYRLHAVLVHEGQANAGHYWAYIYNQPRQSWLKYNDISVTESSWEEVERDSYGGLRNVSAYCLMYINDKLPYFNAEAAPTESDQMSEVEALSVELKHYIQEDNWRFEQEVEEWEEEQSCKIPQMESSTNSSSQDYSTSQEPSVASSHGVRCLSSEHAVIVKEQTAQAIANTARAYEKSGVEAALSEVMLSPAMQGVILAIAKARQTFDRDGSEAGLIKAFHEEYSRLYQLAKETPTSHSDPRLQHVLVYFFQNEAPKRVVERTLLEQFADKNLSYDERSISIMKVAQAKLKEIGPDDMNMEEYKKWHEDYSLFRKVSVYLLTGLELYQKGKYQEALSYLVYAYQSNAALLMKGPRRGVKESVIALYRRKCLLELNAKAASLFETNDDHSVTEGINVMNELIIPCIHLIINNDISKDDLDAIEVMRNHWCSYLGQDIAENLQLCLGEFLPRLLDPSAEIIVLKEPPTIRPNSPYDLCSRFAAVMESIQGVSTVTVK
Test: competition with HA-UbPA activity-based probe labelling (Western blot) in NCI-H520 extract and cells; ABPP mass spectrometry
Assay type: biochemical

Cc1ccc2c(N)c(C(=O)N[C@H]3CCc4cc(N5CC6CCC(C5)N6)ccc4C3)sc2n1 [FT206]
EC50: 300 to 1000 nM
